{
  "source": "PubChem BioAssay AID1259409",
  "about": "(Chemical Carcinogenesis Research Information System (CCRIS), 2018)",
  "origin": "cited, not measured here",
  "test_system": "rodent chemically induced tumor inhibition, incidence and multiplicity",
  "assay": "CCRIS tumor inhibitor studies",
  "settings": "64091-91-4, Promoter: NONE USED",
  "data": [
    {"smiles": "S=C=NCCc1ccccc1", "values": [
      {"measurement": "tumour outcome (control, treated, inhibition, significance)", "setting": "Carcinogen: 4-(METHYLNITROSAMINO)-1-(3-PYRIDYL)-1-BUTANONE, Dose [Inhibitor]: 3 UMOL/G DIET BEGINNING 1 WK PRIOR TO FIRST CARCINOGEN DOSE (STUDY DURATION: 104 WK), Route [Inhibitor]: ORAL, Species: RAT, Strain/Sex: F344/MALE, Target Tissue: Type of Lesion: HEMATOPOIETIC SYSTEM: LEUKEMIA OR LYMPHOMA, Dose [Carcinogen]: 1.76 MG/KG 3/WK FOR 20 WK", "result": "5/40 (13%), 3/40 (8%), 38%, not calculated"},
      {"measurement": "tumour outcome (control, treated, inhibition, significance)", "setting": "Carcinogen: 4-(METHYLNITROSAMINO)-1-(3-PYRIDYL)-1-BUTANONE, Dose [Inhibitor]: 3 UMOL/G DIET BEGINNING 1 WK PRIOR TO FIRST CARCINOGEN DOSE (STUDY DURATION: 104 WK), Route [Inhibitor]: ORAL, Species: RAT, Strain/Sex: F344/MALE, Target Tissue: Type of Lesion: LUNG: ADENOMA OR CARCINOMA, Dose [Carcinogen]: 1.76 MG/KG 3/WK FOR 20 WK", "result": "32/40 (80%), 17/40 (43%), 46%, p<0.05"},
      {"measurement": "tumour outcome (control, treated, inhibition, significance)", "setting": "Carcinogen: 4-(METHYLNITROSAMINO)-1-(3-PYRIDYL)-1-BUTANONE, Dose [Inhibitor]: 3 UMOL/G DIET BEGINNING 1 WK PRIOR TO FIRST CARCINOGEN DOSE (STUDY DURATION: 104 WK), Route [Inhibitor]: ORAL, Species: RAT, Strain/Sex: F344/MALE, Target Tissue: Type of Lesion: LUNG: ADENOMA OR HEPATOCELLULAR CARCINOMA, Dose [Carcinogen]: 1.76 MG/KG 3/WK FOR 20 WK", "result": "15/40 (38%), 14/40 (35%), 8%, not calculated"},
      {"measurement": "tumour outcome (control, treated, inhibition, significance)", "setting": "Carcinogen: 4-(METHYLNITROSAMINO)-1-(3-PYRIDYL)-1-BUTANONE, Dose [Inhibitor]: 3 UMOL/G DIET BEGINNING 1 WK PRIOR TO FIRST CARCINOGEN DOSE (STUDY DURATION: 104 WK), Route [Inhibitor]: ORAL, Species: RAT, Strain/Sex: F344/MALE, Target Tissue: Type of Lesion: MAMMARY GLAND: ADENOCARCINOMA OR FIBROADENOMA OR FIBROMA, Dose [Carcinogen]: 1.76 MG/KG 3/WK FOR 20 WK", "result": "5/40 (13%), 0/40 (0%), 100%, not calculated"},
      {"measurement": "tumour outcome (control, treated, inhibition, significance)", "setting": "Carcinogen: 4-(METHYLNITROSAMINO)-1-(3-PYRIDYL)-1-BUTANONE, Dose [Inhibitor]: 3 UMOL/G DIET BEGINNING 1 WK PRIOR TO FIRST CARCINOGEN DOSE (STUDY DURATION: 104 WK), Route [Inhibitor]: ORAL, Species: RAT, Strain/Sex: F344/MALE, Target Tissue: Type of Lesion: NASAL CAVITY: SQUAMOUS CELL PAPILLOMA OR TRANSITIONAL-CELL PAPILLOMA OR POLYP OR SQUAMOUS CELL CARCINOMA, Dose [Carcinogen]: 1.76 MG/KG 3/WK FOR 20 WK", "result": "11/40 (28%), 7/40 (18%), 36%, not calculated"},
      {"measurement": "tumour outcome (control, treated, inhibition, significance)", "setting": "Carcinogen: 4-(METHYLNITROSAMINO)-1-(3-PYRIDYL)-1-BUTANONE, Dose [Inhibitor]: 3 UMOL/G DIET BEGINNING 1 WK PRIOR TO FIRST CARCINOGEN DOSE (STUDY DURATION: 104 WK), Route [Inhibitor]: ORAL, Species: RAT, Strain/Sex: F344/MALE, Target Tissue: Type of Lesion: PANCREAS: EXOCRINE ADENOCARCINOMA OR EXOCRINE ADENOMA, Dose [Carcinogen]: 1.76 MG/KG 3/WK FOR 20 WK", "result": "1/40 (3%), 5/40 (13%), -333%, not calculated"},
      {"measurement": "tumour outcome (control, treated, inhibition, significance)", "setting": "Carcinogen: 4-(METHYLNITROSAMINO)-1-(3-PYRIDYL)-1-BUTANONE, Dose [Inhibitor]: 3 UMOL/G DIET BEGINNING 1 WK PRIOR TO FIRST CARCINOGEN DOSE (STUDY DURATION: 104 WK), Route [Inhibitor]: ORAL, Species: RAT, Strain/Sex: F344/MALE, Target Tissue: Type of Lesion: PERITONEUM: MESOTHELIOMA, Dose [Carcinogen]: 1.76 MG/KG 3/WK FOR 20 WK", "result": "1/40 (3%), 2/40 (5%), -67%, not calculated"},
      {"measurement": "tumour outcome (control, treated, inhibition, significance)", "setting": "Carcinogen: 4-(METHYLNITROSAMINO)-1-(3-PYRIDYL)-1-BUTANONE, Dose [Inhibitor]: 3 UMOL/G DIET BEGINNING 1 WK PRIOR TO FIRST CARCINOGEN DOSE (STUDY DURATION: 104 WK), Route [Inhibitor]: ORAL, Species: RAT, Strain/Sex: F344/MALE, Target Tissue: Type of Lesion: STOMACH: SARCOMA OR PAPILLOMA, Dose [Carcinogen]: 1.76 MG/KG 3/WK FOR 20 WK", "result": "5/40 (13%), 2/40 (5%), 62%, not calculated"},
      {"measurement": "tumour outcome (control, treated, inhibition, significance)", "setting": "Carcinogen: 4-(METHYLNITROSAMINO)-1-(3-PYRIDYL)-1-BUTANONE, Dose [Inhibitor]: 3 UMOL/G DIET BEGINNING 1 WK PRIOR TO FIRST CARCINOGEN DOSE (STUDY DURATION: 104 WK), Route [Inhibitor]: ORAL, Species: RAT, Strain/Sex: F344/MALE, Target Tissue: Type of Lesion: TESTES: TUMOR, Dose [Carcinogen]: 1.76 MG/KG 3/WK FOR 20 WK", "result": "31/40 (78%), 31/40 (78%), 0%"},
      {"measurement": "tumour outcome (control, treated, inhibition, significance)", "setting": "Carcinogen: 4-(METHYLNITROSAMINO)-1-(3-PYRIDYL)-1-BUTANONE, Dose [Inhibitor]: 3 UMOL/G DIET BEGINNING 1 WK PRIOR TO FIRST CARCINOGEN DOSE (STUDY DURATION: 104 WK), Route [Inhibitor]: ORAL, Species: RAT, Strain/Sex: F344/MALE, Target Tissue: Type of Lesion: THYROID: MALIGNANT TUMOR OR BENIGN TUMOR, Dose [Carcinogen]: 1.76 MG/KG 3/WK FOR 20 WK", "result": "1/40 (3%), 3/40 (8%), -166%, not calculated"},
      {"measurement": "tumour outcome (control, treated, inhibition, significance)", "setting": "Carcinogen: 4-(METHYLNITROSAMINO)-1-(3-PYRIDYL)-1-BUTANONE, Dose [Inhibitor]: 5 UMOL/D FOR 4 CONSECUTIVE DAYS (STUDY DURATION: 16 WK), Route [Inhibitor]: GAVAGE, Species: MOUSE, Strain/Sex: STRAIN-A/FEMALE, Target Tissue: Type of Lesion: LUNG: ADENOMA, Dose [Carcinogen]: 10 UMOL ONCE 2 HR POST LAST AGENT DOSE", "result": "30/30 (100%), 18/20 (89%), 11%, not calculated"},
      {"measurement": "tumour outcome (control, treated, inhibition, significance)", "setting": "Carcinogen: 4-(METHYLNITROSAMINO)-1-(3-PYRIDYL)-1-BUTANONE, Dose [Inhibitor]: 25 UMOL/D FOR 4 CONSECUTIVE DAYS (STUDY DURATION: 16 WK), Route [Inhibitor]: GAVAGE, Species: MOUSE, Strain/Sex: STRAIN-A/FEMALE, Target Tissue: Type of Lesion: LUNG: ADENOMA, Dose [Carcinogen]: 10 UMOL ONCE 2 HR POST LAST AGENT DOSE", "result": "30/30 (100%), 6/20 (30%), 70%, p<0.01"},
      {"measurement": "tumour outcome (control, treated, inhibition, significance)", "setting": "Carcinogen: 4-(N-NITROSOMETHYLAMINO)-1-(3-PYRIDYL)-1-BUTANONE, Dose [Inhibitor]: 0, 3 UMOL/G DIET BEGINNING 1 WK PRIOR TO CARCINOGEN TREATMENT AND CONTINUING FOR 21 WK (STUDY DURATION: 104 WK), Route [Inhibitor]: ORAL, Species: RAT, Strain/Sex: F344/MALE, Target Tissue: Type of Lesion: LIVER: ADENOMA, Dose [Carcinogen]: 1.76 MG/KG 3/WK FOR 20 WK", "result": "12/40 (30%), 9/40 (23%), 23%, not calculated"},
      {"measurement": "tumour outcome (control, treated, inhibition, significance)", "setting": "Carcinogen: 4-(N-NITROSOMETHYLAMINO)-1-(3-PYRIDYL)-1-BUTANONE, Dose [Inhibitor]: 0, 3 UMOL/G/DIET BEGINNING 1 WK PRIOR TO CARCINOGEN TREATMENT AND CONTINUING FOR 21 WK (STUDY DURATION: 104 WK), Route [Inhibitor]: ORAL, Species: RAT, Strain/Sex: F344/MALE, Target Tissue: Type of Lesion: LIVER: CARCINOMA, Dose [Carcinogen]: 1.76 MG/KG 3/WK FOR 20 WK", "result": "3/40 (8%), 5/40 (13%), -62%, not calculated"},
      {"measurement": "tumour outcome (control, treated, inhibition, significance)", "setting": "Carcinogen: 4-(N-NITROSOMETHYLAMINO)-1-(3-PYRIDYL)-1-BUTANONE, Dose [Inhibitor]: 0, 3 UMOL/G/DIET BEGINNING 1 WK PRIOR TO CARCINOGEN TREATMENT AND CONTINUING FOR 21 WK (STUDY DURATION: 104 WK), Route [Inhibitor]: ORAL, Species: RAT, Strain/Sex: F344/MALE, Target Tissue: Type of Lesion: LUNG: ADENOMA, Dose [Carcinogen]: 1.76 MG/KG 3/WK FOR 20 WK", "result": "8/40 (20%), 5/40 (13%), 35%, not calculated"},
      {"measurement": "tumour outcome (control, treated, inhibition, significance)", "setting": "Carcinogen: 4-(N-NITROSOMETHYLAMINO)-1-(3-PYRIDYL)-1-BUTANONE, Dose [Inhibitor]: 0, 3 UMOL/G/DIET BEGINNING 1 WK PRIOR TO CARCINOGEN TREATMENT AND CONTINUING FOR 21 WK (STUDY DURATION: 104 WK), Route [Inhibitor]: ORAL, Species: RAT, Strain/Sex: F344/MALE, Target Tissue: Type of Lesion: LUNG: CARCINOMA, Dose [Carcinogen]: 1.76 MG/KG 3/WK FOR 20 WK", "result": "24/40 (60%), 12/40 (30%), 50%, not calculated"}
    ]}
  ]
}
